Measurements published in ChEMBL document CHEMBL1140262 (J Med Chem, 2005).
pKi: −log10 of the molar value.

What was measured:
[1] = biological target: Neuronal acetylcholine receptor subunit alpha-7 (Rattus norvegicus, UniProt Q05941); assay type: cell membranes, Membrane
Description: Inhibition of 3 nM [3H]-MLA binding to Nicotinic acetylcholine receptor alpha7 of rat brain membranes

[2] = biological target: Synaptic vesicular amine transporter (Rattus norvegicus, UniProt Q01827); assay type: cell membranes, Membrane
Description: Inhibition of 5 nM [3H]DTBZ binding to Vesicular Monoamine Transporter (VAMT2) of rat vesicle membranes

[3] = biological target: Neuronal acetylcholine receptor; alpha4/beta2 (Rattus norvegicus, UniProt P09483+P12390); test: Inhibition of 3 nM [3H]NIC binding to Nicotinic acetylcholine receptor alpha4-beta2 of rat striatal membranes; assay type: cell membranes, Membrane
Rattus norvegicus [4] = species on record: Rattus norvegicus; test: Ratio of Ki for Nicotinic acetylcholine receptor alpha4-beta2 and Vesicular Monoamine Transporter ([…])
Rattus norvegicus [5] = species on record: Rattus norvegicus; test: Ratio of Ki for Nicotinic acetylcholine receptor alpha-7 and Vesicular monoamine transporter ([…])

Sequence of Synaptic vesicular amine transporter (Q01827 whole entry): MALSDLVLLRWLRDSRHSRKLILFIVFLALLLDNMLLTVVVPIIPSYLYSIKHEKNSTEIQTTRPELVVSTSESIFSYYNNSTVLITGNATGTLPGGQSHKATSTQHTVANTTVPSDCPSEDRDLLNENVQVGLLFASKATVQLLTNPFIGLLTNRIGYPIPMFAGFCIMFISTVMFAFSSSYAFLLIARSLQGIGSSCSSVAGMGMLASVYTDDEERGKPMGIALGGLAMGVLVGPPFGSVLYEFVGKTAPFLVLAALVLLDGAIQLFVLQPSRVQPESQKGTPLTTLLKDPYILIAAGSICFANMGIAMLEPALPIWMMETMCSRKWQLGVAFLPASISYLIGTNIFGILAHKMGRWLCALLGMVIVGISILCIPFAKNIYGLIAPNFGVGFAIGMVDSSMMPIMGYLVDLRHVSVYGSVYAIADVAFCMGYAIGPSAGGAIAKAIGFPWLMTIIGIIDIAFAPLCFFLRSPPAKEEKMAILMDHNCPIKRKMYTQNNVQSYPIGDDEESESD
Sequence of Neuronal acetylcholine receptor; alpha4/beta2 (P09483 whole entry): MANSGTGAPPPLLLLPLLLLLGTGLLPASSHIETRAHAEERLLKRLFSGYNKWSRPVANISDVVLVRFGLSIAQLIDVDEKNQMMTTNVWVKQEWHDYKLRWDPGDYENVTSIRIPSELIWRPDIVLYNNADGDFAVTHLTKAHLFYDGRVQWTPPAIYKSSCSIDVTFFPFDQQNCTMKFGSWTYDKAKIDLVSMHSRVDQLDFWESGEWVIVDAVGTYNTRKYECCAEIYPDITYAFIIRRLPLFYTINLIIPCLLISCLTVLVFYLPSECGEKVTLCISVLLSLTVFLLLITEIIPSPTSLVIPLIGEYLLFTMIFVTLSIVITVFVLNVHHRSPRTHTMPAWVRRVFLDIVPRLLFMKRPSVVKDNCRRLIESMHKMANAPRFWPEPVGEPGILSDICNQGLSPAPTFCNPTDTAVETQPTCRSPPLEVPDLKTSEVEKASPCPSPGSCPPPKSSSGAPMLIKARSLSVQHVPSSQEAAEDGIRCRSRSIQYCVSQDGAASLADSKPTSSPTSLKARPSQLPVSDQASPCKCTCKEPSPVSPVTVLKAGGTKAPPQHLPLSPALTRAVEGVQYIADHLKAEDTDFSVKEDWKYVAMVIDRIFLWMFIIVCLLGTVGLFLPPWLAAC
Sequence of Neuronal acetylcholine receptor; alpha4/beta2 (P12390 whole entry): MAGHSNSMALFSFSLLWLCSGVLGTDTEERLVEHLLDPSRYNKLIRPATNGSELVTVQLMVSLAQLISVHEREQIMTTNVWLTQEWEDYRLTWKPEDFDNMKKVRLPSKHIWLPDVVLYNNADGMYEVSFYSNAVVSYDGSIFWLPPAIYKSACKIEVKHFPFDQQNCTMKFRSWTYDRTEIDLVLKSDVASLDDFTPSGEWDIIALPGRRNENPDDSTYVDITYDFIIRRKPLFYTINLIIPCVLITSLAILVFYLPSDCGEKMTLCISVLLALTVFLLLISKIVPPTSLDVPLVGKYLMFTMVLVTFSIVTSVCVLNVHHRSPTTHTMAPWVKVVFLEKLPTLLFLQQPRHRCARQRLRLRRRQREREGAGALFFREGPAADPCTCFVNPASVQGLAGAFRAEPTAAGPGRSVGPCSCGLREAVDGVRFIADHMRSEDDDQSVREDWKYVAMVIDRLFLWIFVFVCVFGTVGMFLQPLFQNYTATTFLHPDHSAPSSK
Sequence of Neuronal acetylcholine receptor subunit alpha-7 (Q05941 whole entry): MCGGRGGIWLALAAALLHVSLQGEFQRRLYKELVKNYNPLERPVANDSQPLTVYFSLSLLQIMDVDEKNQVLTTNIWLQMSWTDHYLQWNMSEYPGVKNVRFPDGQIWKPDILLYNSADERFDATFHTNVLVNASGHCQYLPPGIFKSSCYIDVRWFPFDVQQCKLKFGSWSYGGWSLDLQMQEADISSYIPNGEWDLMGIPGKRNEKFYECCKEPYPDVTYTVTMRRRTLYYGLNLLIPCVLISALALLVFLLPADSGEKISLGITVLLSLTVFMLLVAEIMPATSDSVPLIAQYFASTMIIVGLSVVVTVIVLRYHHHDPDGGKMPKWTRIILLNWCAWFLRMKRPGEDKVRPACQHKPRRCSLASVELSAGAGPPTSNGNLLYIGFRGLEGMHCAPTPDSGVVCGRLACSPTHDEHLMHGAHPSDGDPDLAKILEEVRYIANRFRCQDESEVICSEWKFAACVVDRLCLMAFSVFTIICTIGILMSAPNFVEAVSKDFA

Question: CN1[C@H](CCc2ccccc2)CCC[C@H]1CCc1ccccc1 was tested. Which pKi [1] did it give?
Answer: 4.60

Question: Which results are given for c1ccc2cc(CC[C@H]3CCC[C@@H](CCc4ccc5ccccc5c4)N3)ccc2c1?
Answer: pKi [2]: < 4.00; pKi [3]: < 4.00; pKi [1]: < 4.00

Question: With CN1[C@@H](CCc2ccccc2)CCC[C@H]1/C=C/c1ccccc1 as the compound, how does the pKi [3] read?
Answer: < 4.00

Question: CN1[C@@H](/C=C/c2ccccc2)CCC[C@@H]1/C=C/c1ccccc1 was tested. Which pKi [2] did it give?
Answer: 5.15

Question: And the pKi [3]?
Answer: < 4.00

Question: And the Ki ratio (Rattus norvegicus [4])?
Answer: > 14.1

Question: And the Ki ratio (Rattus norvegicus [5])?
Answer: > 14.1

Question: And the pKi [1]?
Answer: < 4.00

Question: With c1ccc2c(CC[C@H]3CCC[C@@H](CCc4cccc5ccccc45)N3)cccc2c1 as the compound, how does the pKi [2] read?
Answer: 5.33

Question: And the pKi [3]?
Answer: < 4.00

Question: What about the Ki ratio (Rattus norvegicus [4]) of the same compound?
Answer: > 21.4

Question: What about the Ki ratio (Rattus norvegicus [5]) of the same compound?
Answer: > 21.4

Question: And the pKi [1]?
Answer: < 4.00

Question: With CN1[C@H](/C=C/c2ccccc2)CCC[C@@H]1/C=C/c1ccccc1 as the compound, how does the pKi [2] read?
Answer: 5.01

Question: What about the pKi [3] of the same compound?
Answer: 4.94

Question: And the Ki ratio (Rattus norvegicus [4])?
Answer: 1.2

Question: And the Ki ratio (Rattus norvegicus [5])?
Answer: > 10.1

Question: What about the pKi [1] of the same compound?
Answer: < 4.00

Question: What does the source list for C[N+]1(C)[C@@H](CCc2ccccc2)CCC[C@H]1CCc1ccccc1?
Answer: pKi [2]: 4.78; pKi [3]: 4.61; Ki ratio (Rattus norvegicus [4]): 1.5; Ki ratio (Rattus norvegicus [5]): 0.6; pKi [1]: 5.02

Question: How did the pKi [3] turn out when CN1[C@H](CCc2ccccc2)CCC[C@@H]1/C=C/c1ccccc1 was run?
Answer: < 4.00

Question: CN1[C@@H](CCc2ccccc2)C=CC[C@H]1/C=C/c1ccccc1 was tested. Which pKi [2] did it give?
Answer: 5.42

Question: What about the pKi [3] of the same compound?
Answer: < 4.00

Question: And the Ki ratio (Rattus norvegicus [4])?
Answer: > 26

Question: And the Ki ratio (Rattus norvegicus [5])?
Answer: > 26

Question: And the pKi [1]?
Answer: < 4.00

Question: Which results are given for CN1[C@@H](CCc2ccc3ccccc3c2)CCC[C@H]1CCc1ccc2ccccc2c1?
Answer: pKi [2]: 5.69; pKi [3]: < 4.00; Ki ratio (Rattus norvegicus [4]): > 49.3; Ki ratio (Rattus norvegicus [5]): > 49.3; pKi [1]: < 4.00

Question: Which results are given for CN[C@H](CCCCCCc1ccccc1)CCc1ccccc1?
Answer: pKi [2]: 5.40; pKi [3]: < 4.00; Ki ratio (Rattus norvegicus [4]): > 25.2; Ki ratio (Rattus norvegicus [5]): > 25.2; pKi [1]: < 4.00

Question: With CN1[C@@H](CCc2ccccc2)CCC[C@@H]1/C=C/c1ccccc1 as the compound, how does the pKi [3] read?
Answer: < 4.00

Question: CN1[C@H](CCc2ccccc2)CC=C[C@@H]1CCc1ccccc1 was tested. Which pKi [3] did it give?
Answer: < 4.00

Question: With CN(CCCc1ccccc1)CCCc1ccccc1 as the compound, how does the pKi [2] read?
Answer: 5.51

Question: And the pKi [3]?
Answer: < 4.00

Question: What about the Ki ratio (Rattus norvegicus [4]) of the same compound?
Answer: > 32.3

Question: What about the Ki ratio (Rattus norvegicus [5]) of the same compound?
Answer: > 32.3

Question: What about the pKi [1] of the same compound?
Answer: < 4.00

Question: What does the source list for C[N+]1(C)[C@H](CCc2ccccc2)CCC[C@H]1CCc1ccccc1?
Answer: pKi [2]: 4.61; pKi [3]: 4.79; Ki ratio (Rattus norvegicus [4]): 0.7; Ki ratio (Rattus norvegicus [5]): 0.1; pKi [1]: 5.62

Question: C(=C\[C@@H]1CCC[C@H](/C=C/c2ccccc2)N1)/c1ccccc1 was tested. Which pKi [3] did it give?
Answer: < 4.00

Question: What about the Ki ratio (Rattus norvegicus [4]) of the same compound?
Answer: > 48.1

Question: And the Ki ratio (Rattus norvegicus [5])?
Answer: > 48.1

Question: And the pKi [1]?
Answer: < 4.00

Question: What does the source list for C(=C\[C@@H]1CCC[C@@H](/C=C/c2ccccc2)N1)/c1ccccc1.C(=C\[C@H]1CCC[C@H](/C=C/c2ccccc2)N1)/c1ccccc1?
Answer: pKi [2]: 5.28; pKi [3]: < 4.00; Ki ratio (Rattus norvegicus [4]): > 19.3; Ki ratio (Rattus norvegicus [5]): > 19.3; pKi [1]: < 4.00

Question: How did the pKi [2] turn out when C[N+]1(C)[C@H](/C=C/c2ccccc2)CCC[C@H]1/C=C/c1ccccc1 was run?
Answer: 5.03

Question: And the pKi [3]?
Answer: < 4.00

Question: What about the Ki ratio (Rattus norvegicus [4]) of the same compound?
Answer: > 10.8

Question: What about the Ki ratio (Rattus norvegicus [5]) of the same compound?
Answer: 1.6

Question: What about the pKi [1] of the same compound?
Answer: 4.82

Question: Which results are given for C[N+]1(C)[C@H](/C=C/c2ccccc2)CCC[C@@H]1/C=C/c1ccccc1?
Answer: pKi [2]: < 4.00; pKi [3]: < 4.00; Ki ratio (Rattus norvegicus [5]): < 0.3; pKi [1]: 4.47

Question: How did the pKi [2] turn out when CN(C/C=C/c1ccccc1)C/C=C/c1ccccc1 was run?
Answer: 5.63

Question: What about the pKi [3] of the same compound?
Answer: < 4.00

Question: And the Ki ratio (Rattus norvegicus [4])?
Answer: > 42.2

Question: What about the Ki ratio (Rattus norvegicus [5]) of the same compound?
Answer: > 42.2

Question: And the pKi [1]?
Answer: < 4.00

Question: CN[C@@H](CCCCCCc1ccccc1)CCc1ccccc1 was tested. Which pKi [2] did it give?
Answer: 5.28

Question: What about the pKi [3] of the same compound?
Answer: < 4.00

Question: What about the Ki ratio (Rattus norvegicus [4]) of the same compound?
Answer: > 19.2

Question: And the Ki ratio (Rattus norvegicus [5])?
Answer: > 19.2

Question: What about the pKi [1] of the same compound?
Answer: < 4.00

Question: CN1[C@H](CCc2ccccc2)CCC[C@H]1/C=C/c1ccccc1 was tested. Which pKi [3] did it give?
Answer: < 4.00

Question: With CN1[C@@H](CCc2cccc3ccccc23)CCC[C@H]1CCc1cccc2ccccc12 as the compound, how does the pKi [2] read?
Answer: 6.20

Question: What about the pKi [3] of the same compound?
Answer: < 4.00

Question: What about the Ki ratio (Rattus norvegicus [4]) of the same compound?
Answer: > 159

Question: What about the Ki ratio (Rattus norvegicus [5]) of the same compound?
Answer: > 159

Question: What about the pKi [1] of the same compound?
Answer: < 4.00

Question: How did the pKi [1] turn out when CN1[C@@H](CCc2ccccc2)CCC[C@@H]1CCc1ccccc1 was run?
Answer: 4.40

Question: Which results are given for CN1[C@H](/C=C/c2ccccc2)CCC[C@H]1/C=C/c1ccccc1?
Answer: pKi [2]: 4.71; pKi [3]: < 4.00; Ki ratio (Rattus norvegicus [4]): > 5.2; Ki ratio (Rattus norvegicus [5]): > 5.2; pKi [1]: < 4.00

Question: c1ccc(CC[C@H]2CCC[C@@H](CCc3ccccc3)N2)cc1 was tested. Which pKi [2] did it give?
Answer: 5.64

Question: And the pKi [3]?
Answer: < 4.00

Question: What about the Ki ratio (Rattus norvegicus [4]) of the same compound?
Answer: > 43.3

Question: What about the Ki ratio (Rattus norvegicus [5]) of the same compound?
Answer: > 43.3

Question: And the pKi [1]?
Answer: < 4.00

Question: How did the pKi [1] turn out when CN1[C@@H](CCc2ccccc2)CCC[C@H]1CCc1ccccc1 [LOBELANE] was run?
Answer: 4.59
